According to US20030055065A1, “Tricyclic amide and urea compounds useful for inhibition of G-protein function and for treatment of proliferative diseases” (priority 1993, published 2003):
“And” between values parts separate entries of the source, which are not always exact repeats. Identical values can stand only once. Like-named read-outs stand apart in the source and are kept apart here.

Tests used:
[1] = test system: T24-BAG4 human bladder carcinoma cells expressing an activated H-ras gene; test: Cell Mat Assay: tumor cell colony inhibition (tIC50); assay type: cell-based; details: Homo sapiens, inhibition of tumor cell growth
Summary of the method: (§1)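 Serial compound dilutions added 24 h after planting T24-BAG4 cells onto a mat of normal cells, then 14 d colony growth; monolayers glutaraldehyde-fixed and tumor cells X-Gal stained. tIC50 and mIC50 from microscope counts of colonies, cells per colony and mat cell density.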

[2] = test system: Normal human HEPM fibroblasts; test: Cell Mat Assay: density of mat cells (mIC50); assay type: cell-based; details: Homo sapiens, Fibroblast
Summary of the method: as §1

[3] = biological target: T1, farnesyl protein transferase (FPT), partially purified from rat brain (Rattus norvegicus, UniProt Q02293+Q04631); test: Inhibition of farnesyl protein transferase (transfer of [3H]farnesyl to Ras-CVLS); assay type: biochemical; details: for IC50: read-out: FPT IC50
T1 construct: were partially purified from rat brain by ammonium sulfate fractionation followed by Q-Sepharose
Summary of the method: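 Transfer of [3H]farnesyl onto E. coli-expressed, His6-tagged Ras-CVLS was measured after 30 min at room temperature. Radiolabelled Ras was TCA-precipitated on ice and filter-harvested, and inhibition was expressed as percent of DMSO control.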

[4] = test system: Ras-CVLS processing in COS monkey kidney cells; test: COS cell assay: Ras-CVLS processing (Western blot); assay type: cell-based; details: COS cells, read-out: Inhibition of Ras Processing IC50
Summary of the method: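 COS cells electroporated with Ras-CVLS (farnesyl transferase substrate) cDNA, with drug-containing fresh medium added at 24 h and cells examined at 48 h. TCA-precipitated cellular protein was resolved by SDS gel and immunoblotted with anti-p21 Ras monoclonal and HRP anti-rat IgG to monitor Ras processing.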

[5] = biological target: T2, geranylgeranyl protein transferase (GGPT) I (Rattus norvegicus, UniProt P53610+Q04631); test: Inhibition of geranylgeranyl protein transferase I (Ras-CVLL as acceptor); assay type: biochemical; details: enzyme inhibition
T2 construct: were partially purified from rat brain by ammonium sulfate fractionation followed by Q-Sepharose
Source text: 1. In vitro enzyme assays: Inhibition of farnesyl protein transferase and geranylgeranyl protein transferase.
Both farnesyl protein transferase (FPT) and geranylgeranyl protein transferase (GGPT) I were partially purified from rat brain by ammonium sulfate fractionation followed by Q-Sepharose (Pharmacia, Inc.) anion exchange chromatography essentially as described by Yokoyama et al (Yokoyama, K., et al., (1991), A protein geranylgeranyltransferase from bovine brain: Implications for protein prenylation specificity, Proc. Natl. Acad. Sci USA 88: 5302-5306, the disclosure of which is incorporated herein by reference thereto). Human farnesyl protein transferase was also expressed in E. coli, using cDNA clones encoding both the α and β subunits. The methods used were similar to those published (Omer, C. et al., (1993), Characterization of recombinant human farnesyl protein transferase: Cloning, expression, farnesyl diphosphate binding, and functional homology with yeast prenyl-protein transferases, Biochemistry 32:5167-5176). Human farnesyl protein transferase was partially-purified from the soluble protein fraction of E. coli as described above. […] Two forms of val^12-Ha-Ras protein were prepared as substrates for these enzymes, differing in their carboxy terminal sequence. One form terminated in cysteine-valine-leucine-serine (Ras-CVLS) the other in cystein-valine-leucine-leucine (Ras-CVLL). Ras-CVLS is a substrate for the farnesyl protein transferase while Ras-CVLL is a substrate for geranylgeranyl protein transferase I. The cDNAs encoding these proteins were constructed so that the proteins contain an amino-terminal extension of 6 histidine residues. Both proteins were expressed in Escherichia coli and purified using metal chelate affinity chromatography. The radiolabelled isoprenyl pyrophosphate substrates, [^3H]farnesyl pyrophosphate and [3H]geranylgeranyl pyrophosphate, were purchased from DuPont/New England Nuclear.
The geranylgeranyl protein transferase I assay was essentially identical to the farnesyl protein transferase assay described above, with two exceptions: [^3H]geranylgeranylpyrophosphate replaced farnesyl pyrophosphate as the isoprenoid donor and Ras-CVLL was the protein acceptor.

[6] = Ras-CVLS farnesylation, partially purified rat brain FPT

T1 sequence (Q02293 whole entry, one chain of several): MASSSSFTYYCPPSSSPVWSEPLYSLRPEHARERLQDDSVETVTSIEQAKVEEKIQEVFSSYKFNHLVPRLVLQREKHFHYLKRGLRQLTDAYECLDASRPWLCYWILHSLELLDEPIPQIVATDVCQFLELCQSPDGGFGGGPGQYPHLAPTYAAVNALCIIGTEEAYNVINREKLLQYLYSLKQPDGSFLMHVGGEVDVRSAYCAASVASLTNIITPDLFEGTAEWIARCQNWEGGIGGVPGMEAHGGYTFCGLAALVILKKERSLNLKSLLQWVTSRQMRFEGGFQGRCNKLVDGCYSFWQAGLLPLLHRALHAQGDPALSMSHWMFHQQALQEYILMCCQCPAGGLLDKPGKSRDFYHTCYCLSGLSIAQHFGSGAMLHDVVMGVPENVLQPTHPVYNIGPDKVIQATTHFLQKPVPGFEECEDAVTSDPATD
T2 sequence (P53610 whole entry, one chain of several): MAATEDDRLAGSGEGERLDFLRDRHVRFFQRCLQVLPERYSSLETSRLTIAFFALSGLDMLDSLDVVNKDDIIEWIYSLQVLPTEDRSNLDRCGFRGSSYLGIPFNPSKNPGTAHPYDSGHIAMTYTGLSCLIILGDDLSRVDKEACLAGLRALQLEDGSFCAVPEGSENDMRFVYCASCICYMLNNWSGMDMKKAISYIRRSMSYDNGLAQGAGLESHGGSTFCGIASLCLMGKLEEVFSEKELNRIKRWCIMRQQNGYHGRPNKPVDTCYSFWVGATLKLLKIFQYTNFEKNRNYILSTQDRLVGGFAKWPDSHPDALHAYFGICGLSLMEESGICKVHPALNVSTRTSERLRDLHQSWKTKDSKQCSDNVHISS

| IC50 [1] [µM] | melting point | IC50 [3, 6] | IC50 [5] [µM] | SMILES | IC50 [2] [µM] | IC50 ([4]; Primates, COS) [µM] | also measured |
| --- | --- | --- | --- | --- | --- | --- | --- |
| 12.5 | 122 to 125 °C | 2 µM | – | O=C(Cc1ccccn1)N1CCC(=C2c3ccc(Cl)cc3CCc3cccnc32)CC1 [Example 6] | 50 | 10 | – |
| – | 176 to 178 °C | 4.7 µM | – | O=C(c1ccncc1)N1CCC(=C2c3ccc(Cl)cc3CCc3cccnc32)CC1 [Example 15] | – | – | – |
| – | 228 °C (dec.) | 6 µM | – | O=C(c1cc[n+]([O-])cc1)N1CCC(=C2c3ccc(Cl)cc3CCc3cccnc32)CC1 [Example 22] | – | – | – |
| – | 205 to 207 °C | 6 µM | – | CN1C(=O)C(CCC(=O)N2CCC(=C3c4ccc(Cl)cc4CCc4cccnc43)CC2)NC1=S (centres unmarked) [Example 23] | – | – | – |
| – | 190 to 193 °C | 9.9 µM | – | O=C1CCC(C(=O)N2CCC(=C3c4ccc(Cl)cc4CCc4cccnc43)CC2)=NN1 [Example 35] | – | – | – |
| – | 92.7 to 93 °C | 6.1 µM | – | O=C(C(CO)c1ccccc1)N1CCC(=C2c3ccc(Cl)cc3CCc3cccnc32)CC1 (centres unmarked) [Example 41, 8-chloro-1-[ -(2-hydroxy-1-phenylethylcarbonyl)-4-piperidylidene]-6,11-dihydro-5H-benzo[5,6]-cyclohepta-[1,2-b]pyridine] | – | – | – |
| 50 | 114.2 to 115.8 °C | 0.6 µM | – | O=C(C(c1ccccc1)c1ccccc1)N1CCC(=C2c3ccc(Cl)cc3CCc3cccnc32)CC1 [Example 42] | > 50 | 5.8 | – |
| – | 192 to 193 °C | 6.64 µM | – | O=C(C(=O)N1CCC(=C2c3ccc(Cl)cc3CCc3cccnc32)CC1)c1c[nH]c2ccccc12 [Example 219] | – | – | – |
| – | 282 to 285 °C | 2.49 µM | – | O=C(Cc1ccccc1[N+](=O)[O-])C(=O)N1CCC(=C2c3ccc(Cl)cc3CCc3cccnc32)CC1 [Example 220] | – | – | – |
| – | 128 to 130 °C | – | – | O=C(Cc1cc[n+]([O-])cc1)N1CCC(=C2c3ccc(Cl)cc3CCc3cccnc32)CC1 [Example 227] | – | – | – |
| – | 105 to 107 °C | – | – | O=C(Cc1ccc[n+]([O-])c1)N1CCC(=C2c3ccc(Cl)cc3CCc3ccc[n+]([O-])c32)CC1 [Example 231] | – | – | inhibition at 12 µM ([3]; at 12 μM): 44% |
| > 50 | 85 to 85.6 °C | – | – | O=C(Cc1cc[n+]([O-])cc1)N1CCC(C2c3ccc(Cl)cc3CCc3ccc[n+]([O-])c32)CC1 (centres unmarked) [Example 238] | > 50 | – | inhibition at 4 µM ([3]; at 4 μM): 26% |
| – | 98.6 to 101.6 °C | 0.64 µM | – | O=C(Cc1ccncc1)N1CCC(=C2c3ccc(Cl)cc3CCc3c(On4nnc5ccccc54)ccnc32)CC1 [Example 249] | – | – | – |
| – | 120 to 122 °C | 0.76 µM | – | O=C(Cc1cccnc1)N1CCC(=C2c3ccc(Cl)cc3CCc3c(On4nnc5ccccc54)ccnc32)CC1 [Example 251] | – | 8.1 | – |
| – | 59.8 to 63.5 °C | 9.9 µM | – | CC(C)(C)OC(=O)NCCSc1ccnc2c1CCc1cc(Cl)ccc1C2=C1CCN(C(=O)Cc2cccnc2)CC1 [Example 260] | – | – | – |
| – | 67.2 to 69.8 °C | 2.8 µM | – | CCc1cc2c(cc1Cl)C=Cc1cccnc1C2C1CCN(C(=O)Cc2cccnc2)CC1 (centres unmarked) [Example 270] | – | – | – |
| 12.5 | – | 1.76 µM and 0.47 µM | > 40 | O=C(Nc1ccccc1)N1CCC(=C2c3ccc(Cl)cc3CCc3cccnc32)CC1 [Example 293] | > 50 | > 11.1 | IC50 [4]: 6.5 µM |
| > 50 | – | 4.58 µM | > 35 | O=C(OC(C(=O)N1CCC(=C2c3ccc(Cl)cc3CCc3cccnc32)CC1)c1ccccc1)c1ccncc1 (centres unmarked) [Example 298] | > 50 | > 9 | – |

| IC50 [1] [µM] | melting point | IC50 [3, 6] | IC50 [5] [µM] | SMILES | IC50 [2] [µM] | IC50 ([4]; Primates, COS) [µM] | also measured |
| --- | --- | --- | --- | --- | --- | --- | --- |
| 10 | – | 0.61 µM | 41.3 | O=C(Cc1ccncc1)N1CCC(=C2c3cc(Cl)c(Cl)cc3CCc3cccnc32)CC1 [Example 311] | > 50 | 9.5 | – |
| 12.5 | – | 0.9 µM | > 46 | O=C(Nc1ccccc1)N1CCC(C2c3ccc(Cl)cc3CCc3cccnc32)CC1 (centres unmarked) [Example 312] | > 50 | 3.8 | – |
| 6.25 | – | 0.97 µM | > 46 | O=C(Nc1cccnc1)N1CCC(C2c3ccc(Cl)cc3CCc3cccnc32)CC1 (centres unmarked) [Example 313] | > 50 | 1.5 | – |
| 4 | – | 0.83 µM | > 46 | O=C(Nc1ccncc1)N1CCC(C2c3ccc(Cl)cc3CCc3cccnc32)CC1 (centres unmarked) [Example 314] | > 50 | 3 | – |
| 25 | – | 1.26 µM | > 43 | CC(C)(C(=O)N1CCC(C2c3ccc(Cl)cc3CCc3cccnc32)CC1)c1ccccc1 (centres unmarked) [Example 316] | > 50 | 18.4 | – |
| – | 111.3 to 112.2 °C | 0.57 µM | – | O=C(Cc1ccncc1)N1CCC(=C2c3ccc(Cl)cc3CCc3cc([N+](=O)[O-])cnc32)CC1 [Example 358] | – | – | – |
| < 1.6 | – | 0.03 µM | > 38 | O=C(Cc1cc[n+]([O-])cc1)N1CCC(C2c3ccc(Cl)cc3C=Cc3cc(Br)cnc32)CC1 (centres unmarked) [Example 400-C] | > 25 | 0.7 | IC50 ([3]; enzyme inhibition): 0.03 µM |
| 4 | – | 0.21 µM | > 38 | O=C(Cc1ccc[n+]([O-])c1)N1CCC(C2c3ccc(Cl)cc3C=Cc3cc(Br)cnc32)CC1 (centres unmarked) [Example 400-D] | > 25 | 2 | IC50 ([3]; enzyme inhibition): 0.21 µM |
| 1.6 | – | 0.024 µM | > 39 | O=C(Cc1ccncc1)N1CCC(C2c3ccc(Cl)cc3C=Cc3cc(Br)cnc32)CC1 (centres unmarked) [Example 400-G] | > 25 | 0.58 | IC50 ([3]; enzyme inhibition): 0.024 µM |
| – | 125.6 °C (dec.) | – | – | O=C(Nc1ccccc1)N1CCC(=C2c3ccc(Cl)cc3CCc3c2ncc(Br)c3Cl)CC1 [Example 414] | – | – | IC50 ([3]; enzyme inhibition): 0.9 µM |
| – | 150 °C (dec.) | – | – | O=C(Cc1ccncc1)N1CCC(=C2c3ccc(Cl)cc3CCc3cc(Br)c(O)nc32)CC1 [Example 415] | – | – | IC50 ([3]; enzyme inhibition): > 3.8 µM |
| – | 142 °C (dec.) | 3.7 µM | – | Cn1cc(Br)c(=O)c2c1C(=C1CCN(C(=O)Cc3ccncc3)CC1)c1ccc(Cl)cc1CC2 [Example 416] | – | – | – |
| – | 206.4 to 207 °C | – | – | O=C(Nc1ccncc1)N1CCC(=C2c3ccc(Cl)cc3CCc3cc(Cl)ccc32)CC1 [Example 423] | – | – | FPT inhibition at the concentration in parentheses ([3]; (4.3) μM): 35 (4.3); IC50 ([3]; enzyme inhibition): > 4.3 µM |
| – | 238 to 240 °C | – | – | O=C(O)c1ccc2c(c1)CCc1cccnc1C2=C1CCN(C(=O)Cc2ccncc2)CC1 [Example 435] | – | – | IC50 ([3]; enzyme inhibition): 7 µM |
| – | 118 to 120 °C | 17 µM | – | O=C(NCc1ccccc1)c1ccc2c(c1)CCc1cccnc1C2=C1CCN(C(=O)Cc2ccncc2)CC1 [Example 436] | – | – | – |
| – | 132.8 to 133.7 °C | – | – | O=C(Nc1ccc2c(c1)CCc1cccnc1C2=C1CCN(C(=O)Cc2ccncc2)CC1)OCc1ccccc1 [Example 437] | – | – | FPT inhibition at the concentration in parentheses ([3]; (11) μM): 36 (11) |
| – | 134 to 136.1 °C | – | – | O=C(Cc1ccnc(Br)c1)N1CCC(=C2c3ccc(Cl)cc3CCc3cc(Br)cnc32)CC1 [Example 506] | – | – | – |

| SMILES | IC50 [1] [µM] | melting point | IC50 [3, 6] | IC50 [5] [µM] | IC50 [2] [µM] | IC50 ([4]; Primates, COS) [µM] | also measured |
| --- | --- | --- | --- | --- | --- | --- | --- |
| Cc1cnc2c(c1)CCc1cc(Cl)ccc1C2=C1CCN(C(=O)Cc2cccnc2)CC1 [Example 303] | 8 | – | 0.55 µM | > 43 | > 50 | 3.4 | – |
| O=C(Cc1cccnc1)N1CCN(C2c3ccc(Cl)cc3CCc3cc(Br)cnc32)CC1 (centres unmarked) [Example 351] | 6.25 | – | 0.17 µM | 1000 | 25 | 2.8 | – |
